Laboratory results published in ChEMBL document CHEMBL3431459, “Roche carnitine palmitoyltransferase modulator screening data (supplementary data associated with the publication CHEMBL2216752)”.
≈ marks a conversion by molar mass, not a printed value.

Assays:
[1] = molecular target: T1, Carnitine O-palmitoyltransferase 2, mitochondrial (Homo sapiens, UniProt P23786); experiment: (§1) SUPPLEMENTARY: Inhibition of Carnitine palmitoyltransferase 2
T1 sequence (P23786 whole entry): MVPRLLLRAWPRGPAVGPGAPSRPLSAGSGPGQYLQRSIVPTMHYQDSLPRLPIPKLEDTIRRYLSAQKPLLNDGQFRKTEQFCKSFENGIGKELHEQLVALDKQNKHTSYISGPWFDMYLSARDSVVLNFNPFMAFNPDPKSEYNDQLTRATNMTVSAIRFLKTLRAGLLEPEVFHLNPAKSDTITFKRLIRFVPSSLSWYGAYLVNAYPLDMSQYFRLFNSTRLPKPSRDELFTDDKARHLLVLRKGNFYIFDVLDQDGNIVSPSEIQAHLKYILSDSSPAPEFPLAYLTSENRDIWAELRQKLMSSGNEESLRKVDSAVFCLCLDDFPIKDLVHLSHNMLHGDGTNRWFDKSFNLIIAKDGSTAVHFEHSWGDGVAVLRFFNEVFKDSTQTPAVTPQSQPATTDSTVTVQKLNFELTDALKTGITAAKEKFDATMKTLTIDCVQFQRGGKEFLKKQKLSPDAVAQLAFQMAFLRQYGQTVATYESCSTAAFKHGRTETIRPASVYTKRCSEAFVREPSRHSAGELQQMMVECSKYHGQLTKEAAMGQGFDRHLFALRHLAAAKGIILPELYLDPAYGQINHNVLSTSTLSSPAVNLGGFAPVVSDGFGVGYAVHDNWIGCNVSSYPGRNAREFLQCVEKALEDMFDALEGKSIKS

[2] = molecular target: T2, Carnitine O-palmitoyltransferase 2, mitochondrial (Rattus norvegicus, UniProt P18886); experiment: as §1
T2 sequence (P18886 whole entry): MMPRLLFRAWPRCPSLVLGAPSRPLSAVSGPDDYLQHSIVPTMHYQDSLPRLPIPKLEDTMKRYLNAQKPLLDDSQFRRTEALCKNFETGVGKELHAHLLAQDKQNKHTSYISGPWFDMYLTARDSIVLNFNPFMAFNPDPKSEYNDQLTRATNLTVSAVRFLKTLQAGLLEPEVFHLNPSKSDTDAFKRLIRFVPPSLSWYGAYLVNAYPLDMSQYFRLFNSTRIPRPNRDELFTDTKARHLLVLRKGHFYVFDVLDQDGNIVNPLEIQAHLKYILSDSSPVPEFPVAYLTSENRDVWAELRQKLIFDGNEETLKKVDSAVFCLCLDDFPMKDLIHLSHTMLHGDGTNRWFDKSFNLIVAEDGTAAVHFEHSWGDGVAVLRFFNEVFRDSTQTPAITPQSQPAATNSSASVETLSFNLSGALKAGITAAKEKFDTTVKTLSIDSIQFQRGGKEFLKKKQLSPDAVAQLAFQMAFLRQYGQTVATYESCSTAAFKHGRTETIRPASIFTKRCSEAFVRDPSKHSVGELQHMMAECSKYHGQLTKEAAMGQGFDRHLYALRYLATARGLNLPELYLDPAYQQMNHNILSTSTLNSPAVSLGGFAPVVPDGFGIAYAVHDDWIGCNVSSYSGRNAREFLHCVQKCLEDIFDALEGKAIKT

[3] = molecular target: T3, Carnitine O-palmitoyltransferase 1, muscle isoform (Homo sapiens, UniProt Q92523); experiment: SUPPLEMENTARY: Inhibition of Carnitine palmitoyltransferase 1, muscle isoform; design: species or system Muscle tissue
T3 sequence (Q92523 whole entry): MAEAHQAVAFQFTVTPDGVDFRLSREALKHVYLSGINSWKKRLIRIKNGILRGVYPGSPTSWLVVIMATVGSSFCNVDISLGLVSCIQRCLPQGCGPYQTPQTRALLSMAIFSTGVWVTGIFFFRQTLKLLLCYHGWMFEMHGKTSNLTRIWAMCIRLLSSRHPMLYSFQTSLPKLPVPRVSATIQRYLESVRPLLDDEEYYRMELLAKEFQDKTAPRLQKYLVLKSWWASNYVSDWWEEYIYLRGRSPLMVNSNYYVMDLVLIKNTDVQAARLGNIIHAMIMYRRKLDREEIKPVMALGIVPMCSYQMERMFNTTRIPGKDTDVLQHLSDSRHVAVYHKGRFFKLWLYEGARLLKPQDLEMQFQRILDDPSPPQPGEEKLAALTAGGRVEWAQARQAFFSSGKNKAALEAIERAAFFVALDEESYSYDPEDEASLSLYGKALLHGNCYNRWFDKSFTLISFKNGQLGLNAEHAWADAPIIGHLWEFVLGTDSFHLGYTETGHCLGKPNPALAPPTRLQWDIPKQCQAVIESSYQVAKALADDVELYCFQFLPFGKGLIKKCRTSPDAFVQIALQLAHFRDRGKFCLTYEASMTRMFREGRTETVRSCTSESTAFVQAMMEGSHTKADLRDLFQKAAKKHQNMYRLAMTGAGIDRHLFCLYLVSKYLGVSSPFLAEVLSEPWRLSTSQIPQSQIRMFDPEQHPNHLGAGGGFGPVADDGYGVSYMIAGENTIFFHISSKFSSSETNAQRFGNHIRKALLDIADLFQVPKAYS

[4] = SUPPLEMENTARY: Lyophilisation Solubility Assay (LYSA); format: physicochemical; settings: read-out: Kinetic_solubility
[5] = molecular target: T4, Carnitine O-palmitoyltransferase 1, liver isoform (Homo sapiens, UniProt P50416); experiment: (§2) SUPPLEMENTARY: Inhibition of Carnitine palmitoyltransferase 1, liver isoform
T4 sequence (P50416 whole entry): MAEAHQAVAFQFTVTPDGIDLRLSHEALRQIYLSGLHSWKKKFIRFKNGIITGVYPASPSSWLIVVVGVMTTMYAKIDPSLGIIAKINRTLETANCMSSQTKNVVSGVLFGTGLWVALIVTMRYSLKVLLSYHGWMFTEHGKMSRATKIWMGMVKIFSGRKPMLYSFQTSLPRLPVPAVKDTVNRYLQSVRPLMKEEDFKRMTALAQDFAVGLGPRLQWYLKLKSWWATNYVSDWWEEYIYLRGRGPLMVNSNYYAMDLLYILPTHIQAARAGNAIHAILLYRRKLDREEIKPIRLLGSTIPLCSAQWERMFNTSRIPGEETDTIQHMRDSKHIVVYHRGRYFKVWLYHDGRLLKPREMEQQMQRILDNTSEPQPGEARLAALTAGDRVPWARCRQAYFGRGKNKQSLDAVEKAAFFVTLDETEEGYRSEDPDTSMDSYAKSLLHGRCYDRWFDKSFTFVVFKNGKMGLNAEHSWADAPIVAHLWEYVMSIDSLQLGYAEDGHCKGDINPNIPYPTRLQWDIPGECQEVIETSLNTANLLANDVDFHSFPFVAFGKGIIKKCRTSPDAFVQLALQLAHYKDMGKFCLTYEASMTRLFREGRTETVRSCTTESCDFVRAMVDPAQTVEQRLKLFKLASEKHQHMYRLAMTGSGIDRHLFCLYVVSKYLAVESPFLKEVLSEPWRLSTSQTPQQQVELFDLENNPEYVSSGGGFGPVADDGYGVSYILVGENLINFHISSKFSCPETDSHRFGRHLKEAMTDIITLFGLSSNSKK

[6] = molecular target: T5, Carnitine O-palmitoyltransferase 1, liver isoform (Rattus norvegicus, UniProt P32198); experiment: as §2
T5 sequence (P32198 whole entry): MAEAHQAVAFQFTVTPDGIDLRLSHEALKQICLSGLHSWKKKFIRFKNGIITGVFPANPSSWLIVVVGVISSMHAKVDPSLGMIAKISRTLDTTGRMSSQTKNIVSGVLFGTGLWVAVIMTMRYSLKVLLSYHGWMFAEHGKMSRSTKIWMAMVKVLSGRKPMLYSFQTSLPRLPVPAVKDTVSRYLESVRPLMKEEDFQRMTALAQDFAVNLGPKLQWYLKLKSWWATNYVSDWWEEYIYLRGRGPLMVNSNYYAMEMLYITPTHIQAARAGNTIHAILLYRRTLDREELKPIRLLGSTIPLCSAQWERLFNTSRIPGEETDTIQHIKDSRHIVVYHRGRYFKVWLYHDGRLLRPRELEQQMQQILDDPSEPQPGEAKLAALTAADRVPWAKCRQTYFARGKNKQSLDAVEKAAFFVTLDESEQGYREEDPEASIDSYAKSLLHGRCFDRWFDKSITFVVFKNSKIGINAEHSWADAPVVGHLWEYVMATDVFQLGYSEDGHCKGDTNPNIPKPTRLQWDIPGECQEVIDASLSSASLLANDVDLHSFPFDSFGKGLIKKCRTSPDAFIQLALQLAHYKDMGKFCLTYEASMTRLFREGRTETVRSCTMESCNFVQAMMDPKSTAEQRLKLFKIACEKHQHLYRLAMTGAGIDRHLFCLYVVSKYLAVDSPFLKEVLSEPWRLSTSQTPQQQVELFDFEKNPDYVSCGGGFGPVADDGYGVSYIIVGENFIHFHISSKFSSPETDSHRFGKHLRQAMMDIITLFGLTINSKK

[7] = SUPPLEMENTARY: Lipophilicity (log D) Determination by high-throughput shake-flask; format: physicochemical; settings: octanol/water
[8] = SUPPLEMENTARY: PAMPA permeability assay; format: physicochemical; settings: read-out: Permeability

Compound | IC50 [1] [nM] | IC50 [2] [nM] | IC50 [3] [nM] | solubility kinetic [4] [µg/mL] | IC50 [5] [nM] | IC50 [6] [nM] | logD [7] | Papp [8] [×10⁻⁶ cm/s]
Cc1cc(-c2noc([C@H]3CCCCN3C(=O)COc3ccccc3)n2)n(C)n1 | > 100000 | > 100000 | > 100000 | 30 (≈ 78.7 µM) | 119 | 507 | 3.15 | 4.34
Cc1nn(C)c(-c2noc([C@H]3CCCCN3C(=O)COc3ccccc3)n2)c1Cl | > 100000 | > 100000 | > 100000 | < 1 | 79.1 | 252 | 3.61 | 1.68
Cc1cc(-c2noc([C@H]3CCCCN3C(=O)COc3ccccc3)n2)no1 | > 100000 | > 100000 | > 100000 | 141 (≈ 383 µM) | 137 | 611 | 2.34 | 3.94
COc1ccc(Cl)cc1S(=O)(=O)N1COc2ccc(C(=O)Nc3nc(CC(=O)O)cs3)cc21 | > 100000 | > 100000 | 661 | 519 (≈ 1020 µM) | 53.3 | 18.4 | 0.13 | 2.93
COc1ccc(Cl)cc1S(=O)(=O)N1COc2ccc(C(=O)Nc3ccc(CC(=O)O)cc3)cc21 | > 100000 | > 100000 | 504 | 46 (≈ 91.5 µM) | 159 | 165 | 0.28 | 3.01
O=C(COc1ccccc1)N1CCCC[C@@H]1c1noc(C2CCCCC2)n1 | 47600 | > 100000 | > 100000 | < 1 | 86.5 | 664 | 3.31 | 0.965
COC1CCC(c2nc([C@H]3CCCCN3C(=O)COc3ccccc3)no2)CC1 (stereo partly drawn) | 78400 | > 100000 | > 100000 | 50.5 (≈ 126 µM) | 191 | 222 | 2.83 | 3.5
COC(=O)[C@H]1CCCC[C@@H]1c1nc([C@H]2CCCCN2C(=O)COc2ccccc2)no1 | 57300 | 85500 | > 100000 | 11 (≈ 25.7 µM) | 148 | 479 | 2.9 | 2.24
CC1(C)NC(=O)N(c2ccc(Cl)c(-c3nc([C@H]4CCCCN4C(=O)COc4ccccc4)no3)c2)C1=O | 6090 | 21700 | 22700 | < 1 | 91.2 | 247 | 3.29 | 0.49
Nc1ncc(Cl)c(-c2nc([C@H]3CCCCN3C(=O)COc3ccccc3)no2)n1 | 14400 | > 100000 | 63800 | 51 (≈ 123 µM) | 117 | 129 | 2.61 | 3.59
O=C(COc1ccccc1)N1CCCC[C@@H]1c1noc(-c2ccc(-n3cncn3)cc2)n1 | 33400 | > 100000 | > 100000 | 11 (≈ 25.6 µM) | 91.2 | 96.3 | 3.08 | 2.25
